From patent US5733913A, “6-Aryl pyrido[2,3-d] pyrimidines and naphthyridines for inhibiting protein tyrosine kinase mediated cellular proliferation” (priority 1995, dated 1998)

Columns and labels:
[1] = molecular target: T1, C-src kinase (Homo sapiens, UniProt P12931); test: C-src kinase assay; type: biochemical; conditions: for IC50: read-out: Inhibition of Protein Tyrosine Kinases, C-src, IC50; for inhibition at 50 µM: read-out: Inhibition of Protein Tyrosine Kinases, C-src, % Inhibition
T1 construct: made in house; host or cells: baculovirus-infected insect cells
Method in brief: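 Baculovirus-expressed c-src immunopurified on antibody-coated latex beads, assayed in 40 mM Tris pH 7.5, 5 mM MgCl2 with poly GluTyr substrate and 5 μM ATP plus 32P-ATP. Reaction 10 min at room temperature, TCA-quenched, filtered; incorporated label counted by scintillation.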

[2] = molecular target: T2, mouse PDGF-β receptor tyrosine kinase (Mus musculus, UniProt P05622); test: PDGF receptor tyrosine kinase assay; type: biochemical; conditions: for IC50: read-out: Inhibition of Protein Tyrosine Kinases, PDGF, IC50; for inhibition at 50 µM: read-out: Inhibition of Protein Tyrosine Kinases, PDGF, % Inhibition
T2 construct: a fragment of DNA that codes for the intracellular tyrosine kinase domain; made in house; host or cells: Sf9 insect cells (baculovirus), cell lysate
T2 sequence (P05622 599-961 limits assumed): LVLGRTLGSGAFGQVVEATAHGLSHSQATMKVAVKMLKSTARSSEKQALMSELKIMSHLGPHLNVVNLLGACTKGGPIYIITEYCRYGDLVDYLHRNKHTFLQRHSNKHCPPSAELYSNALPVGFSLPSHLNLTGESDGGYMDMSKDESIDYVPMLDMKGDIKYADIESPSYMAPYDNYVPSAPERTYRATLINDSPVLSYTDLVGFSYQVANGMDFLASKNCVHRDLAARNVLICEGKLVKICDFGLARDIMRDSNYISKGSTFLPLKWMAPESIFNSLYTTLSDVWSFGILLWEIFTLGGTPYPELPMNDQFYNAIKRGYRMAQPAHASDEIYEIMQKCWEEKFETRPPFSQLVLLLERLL
Method in brief: (§1)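 Intracellular kinase domains expressed in baculovirus-infected SF9 cells; crude lysate used as enzyme. Inhibitor preincubated 10 min at 25 °C with lysate in pH 7.0 Hepes buffer with 10 mM MnCl2 and poly(Glu-Tyr) 4:1, then γ-32P-ATP (50 μM ATP) added for 10 min at 25 °C. TCA-precipitated 32P on filters counted, no-enzyme background subtracted.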

[3] = system: V-src kinase; test: V-src kinase assay; type: biochemical; conditions: at 50 μM
Protocol: V-src and C-src Kinase Assays
V-src or C-src kinase is purified from baculovirus infected insect cell lysates using an antipeptide monoclonal antibody directed against the N-terminal 2-17 amino acids. The antibody, covalently linked to 0.65-μm latex beads, is added to a suspension of insect cell lysis buffer comprised of 150 mM NaCl, 50 mM Tris pH 7.5, 1 mM DTT, 1% NP-40, 2 mM EGTA, 1 mM sodium vanadate, 1 mM PMSF, 1 μg/mL each of leupeptin, pepstatin, and aprotinin. Insect cell lysate containing either the c-src or v-src protein is incubated with these beads for 3-4 hours at 4° C. with rotation. At the end of the lysate incubation, the beads are rinsed 3 times in lysis buffer, resuspended in lysis buffer containing 10% glycerol, and frozen. These latex beads are thawed, rinsed three times in assay buffer which is comprised of 40 mM tris pH 7.5, 5 mM MgCl2, and suspended in the same buffer. In a Millipore 96-well plate with a 0.65 μm polyvinylidine membrane bottom are added the reaction components: 10-μL v-src or c-src beads, 10 μL of 2.5 mg/mL poly GluTyr substrate, 5 μM ATP containing 0.2 μCi labeled ^32 P-ATP, 5μL DMSO containing inhibitors or as a solvent control, and buffer to make the final volume 125 μL. The reaction is started at room temperature by addition of the ATP and quenched 10 minutes later by the addition of 125 μL of 30% TCA, 0.1M sodium pyrophosphate for 5 minutes on ice. The plate is then filtered and the wells washed with two 250-μL aliquots of 15% TCA, 0.1M pyrophosphate. The filters are punched, counted in a liquid scintillation counter, and the data examined for inhibitory activity in comparison to a known inhibitor such as erbstatin. The method is described more fully in J. Med. Chem., 37:598-609 (1994).

[4] = molecular target: T3, human FGF-1 (flg) receptor tyrosine kinase (Homo sapiens, UniProt P11362); test: FGF receptor tyrosine kinase assay; type: biochemical; conditions: for IC50: read-out: Inhibition of Protein Tyrosine Kinases, FGF, IC50
T3 construct: a fragment of DNA that codes for the intracellular tyrosine kinase domain; made in house; host or cells: Sf9 insect cells (baculovirus), cell lysate
T3 sequence (P11362 478-767 limits assumed): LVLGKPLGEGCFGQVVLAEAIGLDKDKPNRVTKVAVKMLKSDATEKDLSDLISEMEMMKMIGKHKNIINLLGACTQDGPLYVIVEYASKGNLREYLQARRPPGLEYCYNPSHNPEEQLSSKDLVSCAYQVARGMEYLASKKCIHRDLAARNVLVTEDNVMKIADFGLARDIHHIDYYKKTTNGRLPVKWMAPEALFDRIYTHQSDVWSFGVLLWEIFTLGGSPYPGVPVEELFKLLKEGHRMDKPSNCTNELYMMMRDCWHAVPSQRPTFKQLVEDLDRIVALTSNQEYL
Method in brief: as §1

[5] = molecular target: T4, Human EGF receptor tyrosine kinase (Homo sapiens, UniProt P00533); test: EGF receptor tyrosine kinase assay; type: biochemical; conditions: for IC50: read-out: Inhibition of Protein Tyrosine Kinases, EGF, IC50; for inhibition at 50 µM: read-out: Inhibition of Protein Tyrosine Kinases, EGF, % Inhibition
T4 construct: isolated from A431 epidermoid carcinoma cells; endogenous in cells; host or cells: A431 epidermoid carcinoma cells (Triton lysate, wheat germ agglutinin eluate)
Protocol: Purification of Epidermal Growth Factor Receptor Tyrosine Kinase
Human EGF receptor tyrosine kinase was isolated from A431 epidermoid carcinoma cells by the following methods. Cells were grown in roller bottles in 50% Delbuco's Modified Eagle and 50% HAM F-12 nutrient media (Gibco) containing 10% fetal calf serum. Approximately 10^9 cells were lysed in two volumes of buffer containing 20 mM 2-(4N-[2-hydroxyethyl]piperazin-1-yl)ethanesulfonic acid, pH 7.4, 5 mM ethylene glycol bis(2-aminoethyl ether)N,N,N',N'-tetraacetic acid, 1% Triton X-100, 10% glycerol, 0.1 mM sodium orthovanadate, 5 mM sodium fluoride, 4 mM pyrophosphate, 4 mM benzamide, 1 mM dithiothreitol, 80 μg/mL aprotinin, 40 μg/mL leupeptin, and 1 mM phenylmethylsulfonyl fluoride. After centrifugation at 25,000×g for 10 minutes, the supernatant was equilibrated for 2 hours at 4° C. with 10 mL of wheat germ agglutinin sepharose that was previously equilibrated with 50 mM Hepes, 10% glycerol, 0.1% Triton X-100 and 150 mM NaCl, pH 7.5, (equilibration buffer). Contaminating proteins were washed from the resin with 1M NaCl in equilibration buffer, and the enzyme was eluted with 0.5M N-acetyl-1-D-glucosamine in equilibration buffer.
Determination of IC50 Values
The reaction was terminated by the addition of 2 mL of 75 mM phosphoric acid and passed through a 2.5-cm phosphocellulose filter disc to bind the peptide. The filter was washed five times with 75 mM phosphoric acid and placed in a vial along with 5 mL of scintillation fluid (Ready gel Beckman).

[6] = system: PDGF receptor; test: PDGF receptor autophosphorylation in RASMC; type: cell-based, rat; conditions: PDGF-BB 30 ng/mL, read-out: Inhibition of PDGF Stimulated Receptor Auto Phosphorylation (IC50)
Protocol: Rat aorta smooth muscle cells (RASMC) were isolated from the thoracic aorta of rats and explanted according to the method of Ross, J. Cell. […] Cells were grown in Dulbecco's modified Eagle's medium (DMEM, Gibco) containing 10% fetal calf serum (FBS, Hyclone, Logan, Utah), 1% glutamine (Gibco) and 1% penicillin/streptomycin (Gibco). Cells were identified as smooth muscle cells by their "hill and valley" growth pattern and by fluorescent staining with a monoclonal antibody specific for SMC μ-actin (Sigma). RASMC were used between passages 5 and 20 for all experiments. Test compounds were prepared in dimethylsulfoxide (DMSO) in order to achieve consistency in the vehicle and to ensure compound solubility. Appropriate DMSO controls were simultaneously evaluated with the test compounds.
PDGF Receptor Autophosphorylation
RASMC were grown to confluency in 100 mm dishes. Growth medium was removed and replaced with serum-free medium and cells were incubated at 37° C. for an additional 24 hours. Test compounds were then added directly to the medium and cells incubated for an additional 2 hours. After 2 hours, PDGF-BB was added at a final concentration of 30 ng/mL for 5 minutes at 37° C. to stimulated autophosphorylation of the PDGF receptor. Following growth factor treatment, the medium was removed, and cells were washed with cold phosphate-buffered saline and immediately lysed with 1 mL of lysis buffer (50 mM HEPES[pH 7.5], 150 mM NaCl, 10% glycerol, 1% Triton X-100, 1 mM EDTA, 1 mMEGTA, 50 mM NaF, 1 mM sodium orthovanadate, 30 mM p-nitrophenyl phosphate, 10 mM sodium pyrophosphate, 1 mM phenylmethyl sulfonyl fluoride, 10 μg/mL aprotinin, and 10 μg/mL leupeptin). Lysates were centrifuged at 10,000×g for 10 minutes. […] Following the incubation, protein-A-sepharose beads were added for 2 hours with continuous mixing, and immune complexes bound to the beads washed 4 times with 1 mL lysis wash buffer. Immune complexes were solubilized in 30 μL of Laemmli sample buffer and electrophoresed in 4-20% SDS polyacrylamide gels. Following electrophoresis, separated proteins were transferred to nitrocellulose and immunoblotted with anti-phosphotyrosine antiserum. […] IC50 values were generated from the densitometric data.

Nc1cc2nc(N)c(-c3ccccc3Cl)cc2cn1 [Example 17, 3-(2-Chlorophenyl)-[1,6]naphthyridine-2,7-diamine]
IC50 [1]: 2.76 µM | IC50 [2]: 27 µM | Inhibition of Protein Tyrosine Kinases, V-src, % Inhibition [3]: 5.3% | IC50 [4]: 4.5 µM | IC50 [5]: 7.22 µM

CNc1ncc2cc(-c3ccccc3)c(NC)nc2n1 [Example 19, N^2,N^7 -Dimethyl-6-phenyl-pyrido[2,3-d]pyrimidine-2,7-diamine]
inhibition at 50 µM [1]: 52.8% | inhibition at 50 µM [2]: 47.7% | Inhibition of Protein Tyrosine Kinases, V-src, % Inhibition [3]: 5.2% | IC50 [4]: 16.9 µM | inhibition at 50 µM ([5]; at 50 μM): 26.1%

CCCCNC(=O)Nc1ncc2cc(-c3c(Cl)cccc3Cl)c(NC(=O)NCCCC)nc2n1 [Example 25, 1-Butyl-3-[7-(3-butyl-ureido)-6-(2,6-dichlorophenyl)-pyrido[2,3-d]pyrimidin-2-yl]-urea]
IC50 [1]: 0.207 µM | IC50 [2]: 6.04 µM | Inhibition of Protein Tyrosine Kinases, V-src, % Inhibition [3]: 0.0% | IC50 [4]: 11.8 µM | inhibition at 50 µM ([5]; at 50 μM): 57.5%

CCNC(=O)Nc1nc2nc(N)ncc2cc1-c1c(Cl)cccc1Cl [Example 22, 1-[2-Amino-6-(2,6-dichlorophenyl)-pyrido[2,3-d]pyrimidin-7-yl]-3-ethylurea]
IC50 [6]: 3.73 µM | IC50 [1]: 0.077 µM | IC50 [2]: 1.3 µM | Inhibition of Protein Tyrosine Kinases, V-src, % Inhibition [3]: 46.9% | IC50 [4]: 0.128 µM | inhibition at 50 µM ([5]; at 50 μM): 90.4%

Cc1ccccc1-c1cc2cnc(N)nc2nc1NC(=O)NC(C)(C)C [Example 5, 1-[2-Amino-6-o-tolyl-pyrido[2,3-d]pyrimidin-7-yl]-3-tert-butylurea]
IC50 [1]: 0.407 µM | IC50 [2]: 0.466 µM | Inhibition of Protein Tyrosine Kinases, V-src, % Inhibition [3]: 23.3% | IC50 [4]: 1.4 µM | IC50 [5]: 0.928 µM

CN(C)C=Nc1ncc2cc(-c3c(Cl)cccc3Cl)c(NC(=O)NC(C)(C)C)nc2n1 [Example 79, N'-[7-(3-tert-Butylureido)-6-(2,6-dichlorophenyl)-pyrido[2,3-d]pyrimidin-2-yl]-N,N-dimethylformamidine]
IC50 [2]: 17.8 µM | IC50 [4]: 8.09 µM | inhibition at 50 µM ([5]; at 50 μM): 60.9%

Nc1ncc2cc(-c3c(Cl)cccc3Cl)c(NC3=NCCO3)nc2n1 [Example 24, 2-[2-Amino-6-(2,6-dichlorophenyl)-pyrido[2,3-d]pyrimidin-7-yl]-amino-4,5-dihydro-oxazole]
IC50 [1]: 0.214 µM | IC50 [2]: 11.4 µM | IC50 [4]: 7.29 µM | inhibition at 50 µM ([5]; at 50 μM): 58.3%

CC(C)(C)NC(=O)Nc1ncc2cc(-c3c(Cl)cccc3Cl)c(NC(=O)NC(C)(C)C)nc2n1 [Example 2, 1-tert-Butyl-3-[7-(3-tert-butylureido)-6-(2,6-dichlorophenyl)-pyrido[2,3-d]pyrimidin-2-yl]urea]
IC50 [1]: 19.5 µM | IC50 [2]: 10.2 µM | IC50 [4]: 1.6 µM | inhibition at 50 µM ([5]; at 50 μM): 52.3%

1-[2-Amino-6-(2,6-dichlorophenyl)-pyrido[2,3-d]pyrimidin-7-yl]-3-(3-morpholin-4-yl-propyl)-thiourea [Example 23]
IC50 [1]: 0.613 µM | IC50 [2]: 4.51 µM | Inhibition of Protein Tyrosine Kinases, V-src, % Inhibition [3]: 10.2% | IC50 [4]: 0.291 µM | Inhibition of Protein Tyrosine Kinases, EGF, % Inhibition ([5]; at 50 μM): 104.8%

CC(=O)Nc1ncc2cc(-c3c(Cl)cccc3Cl)c(NC(C)=O)nc2n1 [Example 7, N-[2-Acetylamino-6-(2,6-dichlorophenyl)-pyrido[2,3-d]pyrimidin-7-yl]-acetamide]
IC50 [1]: 2.3 µM | inhibition at 50 µM [2]: 33.5% | Inhibition of Protein Tyrosine Kinases, V-src, % Inhibition [3]: 7.6% | IC50 [4]: 17.9 µM | inhibition at 50 µM ([5]; at 50 μM): 25.1%

Cc1cccc(C)c1-c1cc2cnc(N)nc2nc1NC(=O)NC(C)(C)C [Example 6, 1-[2-Amino-6-(2,6-dimethylphenyl)-pyrido[2,3-d]pyrimidin-7-yl]-3-tert-butylurea]
IC50 [6]: 0.35 µM | Inhibition of Protein Tyrosine Kinases, V-src, % Inhibition [3]: 39.8% | IC50 [4]: 0.397 µM | IC50 [5]: 0.457 µM

Cc1ccccc1-c1cc2cnc(NC(=O)NC(C)(C)C)nc2nc1NC(=O)NC(C)(C)C [Example 4, 1-tert-Butyl-3-[7-(3-tert-butylureido)-6-o-tolyl-pyrido[2,3-d]pyrimidin-2-yl]urea]
inhibition at 50 µM [1]: 33.6% | inhibition at 50 µM [2]: 31.9% | Inhibition of Protein Tyrosine Kinases, V-src, % Inhibition [3]: 3.1% | inhibition at 50 µM ([4]; at 50 μM, read-out: Inhibition of Protein Tyrosine Kinases, FGF, % Inhibition): 21.5% | inhibition at 50 µM ([5]; at 50 μM): 36.6%

CC(C)(C)NC(=O)Nc1nc2nc(N)ncc2cc1-c1c(Br)cccc1Br [Example 88, 1-[2-Amino-6-(2,6-dibromo-phenyl)-pyrido[2,3-d]pyrimidin-7-yl]-3-tert-butyl-urea]
IC50 [1]: 0.213 µM | IC50 [2]: 0.711 µM | IC50 [4]: 0.148 µM | inhibition at 50 µM ([5]; at 50 μM): 34.4%

CCN(CC)CCCNc1ncc2cc(-c3c(Cl)cccc3Cl)c(NC(=O)NC(C)(C)C)nc2n1 [Example 21, 1-tert-Butyl-3-[6-(2,6-dichlorophenyl)-2-(3-diethylamino-propylamino)-pyrido[2,3-d]pyrimidin-7-yl]-urea]
IC50 [6]: 1.8 µM | IC50 [1]: 0.073 µM | IC50 [2]: 0.66 µM | Inhibition of Protein Tyrosine Kinases, V-src, % Inhibition [3]: 49.4% | IC50 [4]: 0.0824 µM | IC50 [5]: 6.97 µM

Cc1ccccc1-c1cc2cnc(N)cc2nc1N [Example 16, 3-o-Tolyl-[1,6]naphthyridine-2,7-diamine]
IC50 [1]: 1.38 µM | IC50 [2]: 10.7 µM | Inhibition of Protein Tyrosine Kinases, V-src, % Inhibition [3]: 10.3% | IC50 [4]: 9.21 µM | IC50 [5]: 7.08 µM
